Laboratory results taken from US6323196A, “Galanthamine derivatives as acetylcholinesterase inhibitors” (priority 1993, dated 2001).
Structures can show the parent of a compound that is named as a salt. Where two headings read alike, the source gives them in different places.

Tests used:
mice = assay type: in vivo; settings: SDDA; dose 0.003 mg/kg, s.c.; retest after 24 hours
Procedure: This utility can also be ascertained by determining the ability of these compounds to restore cholinergically deficient memory in the Dark Avoidance Assay. In this assay mice are tested for their ability to remember an unpleasant stimulus for a period of 24 hours. A mouse is placed in a chamber that contains a dark compartment; a strong incandescent light drives it to the dark compartment, where arn electric shock is administered through metal plates on the floor. The animal is removed from the testing apparatus and tested again, 24 hours later, for the ability to remember the electric shock.
If scopolamine, an anticholinergic that is known to cause memory impairment, is administered before an animal's initial exposure to the test chamber, the animal re-enters the dark compartment shortly after being placed in the test chamber 24 hours later. This effect of scopolamine is blocked by an active test compounds, resulting in a greater interval before re-entry into the dark compartment.
The test results are expressed as the percent of a group of animals in which the effect of scopolanine is blocked, as manifested by an increased interval between being placed in the test chamber and re-entering the dark compartment. Results of Dark Avoidance Assay for some of the compounds of this invention are presented in Table II along with a result for a reference compounds.

acetylcholinesterase = acetylcholinesterase (Homo sapiens, UniProt P22303); experiment: Acetylcholinesterase Inhibition Assay (photometric method); assay type: biochemical
Chain of acetylcholinesterase (P22303 32-614): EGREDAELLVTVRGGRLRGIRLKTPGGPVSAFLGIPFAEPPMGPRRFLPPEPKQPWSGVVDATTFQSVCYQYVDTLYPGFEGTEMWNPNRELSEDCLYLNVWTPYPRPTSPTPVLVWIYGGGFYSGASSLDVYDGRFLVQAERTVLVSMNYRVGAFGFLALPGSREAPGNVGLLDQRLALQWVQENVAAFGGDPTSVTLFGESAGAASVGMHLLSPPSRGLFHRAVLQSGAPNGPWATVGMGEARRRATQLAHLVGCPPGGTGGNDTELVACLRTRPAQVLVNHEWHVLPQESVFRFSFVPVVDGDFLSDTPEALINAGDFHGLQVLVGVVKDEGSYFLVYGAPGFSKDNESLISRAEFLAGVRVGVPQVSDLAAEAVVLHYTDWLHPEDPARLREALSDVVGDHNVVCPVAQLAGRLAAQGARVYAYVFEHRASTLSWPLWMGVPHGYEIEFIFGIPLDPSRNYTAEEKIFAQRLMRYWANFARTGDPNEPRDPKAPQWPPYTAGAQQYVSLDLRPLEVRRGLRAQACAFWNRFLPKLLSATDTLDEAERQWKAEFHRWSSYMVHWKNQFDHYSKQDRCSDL

SMILES	Percent of Animals with Scopolamine Induced Memory Deficit Reversal (mice) [%]	IC50 (acetylcholinesterase; photometric method, read-out: IC50 CHE I (acetylcholinesterase inhibition)) [nM]	IC50 (acetylcholinesterase) [nM]
CNC(=O)Oc1ccc2c3c1O[C@H]1C[C@@H](O)C=C[C@@]31CCN(C)C2 [6-O-Demethyl-6-O-(methylaminocarbonyl)galanthamine]	27	2	–
CNC(=O)Oc1ccc2c3c1O[C@H]1C[C@@H](OC(=O)C(C)C)C=C[C@@]31CCN(C)C2 [6-O-Demethy-6-O-(methylaminocarbonyl)-3-O-(propan-2-yl-carbonyl)galanthamine Hydrochloride]	–	–	47
